Experimental data published in US7084268B1, “Carbapenem compound crystals and interjection preparations” (Eisai Co., Ltd., priority 1999, dated 2006).
Where a name gives a salt, the structure may show the parent alone.

Experiments:
Format in all cases: physicochemical
[1] = Solubility in 62.5% (v/v) aqueous organic solvents, quantification in HPLC; details: 20° C., 30 minutes, monohydrochloride trihydrate
Procedure: The solubility of (+)-(1R,5S,6S)-6-[(R)-1-hydroxyethyl]-1-methyl-2-[(2S,4S)-2-[(3R)-pyrrolidine-3-yl-(R)-hydroxymethyl]pyrrolidine-4-yl]thio-1-carbapen-2-em-3-carboxylic acid monohydrochloride monohydrate and trihydrate in various aqueous organic solvents at a concentration of 62.5% (v/v) in water at 20° C. was determined by HPLC in the following manner.

[2] = Effect of degasification of the air in a vial and/or replacement by nitrogen (storage of powdery charged preparations); details: 25 mg/vial, storage at 40° C. for 1 month
Procedure: As the monohydrate crystals, the powdery charged preparation of the novel carbapenem hydrochloride crystals (25 mg/vial) obtained in the method in Example 2-3 (replacement by nitrogen), the powdery charged preparation (25 mg/vial) subjected to replacement by oxygen in place of replacement by nitrogen in Example 2-3, and the powdery charged preparation (25 mg/vial) not subjected to replacement in Example 2-2 were stored at 60° C. for 5 days (N=3) and then measured for their color difference (ΔE), water content, powdery x-ray diffraction pattern, content of residual carbapenem and HPLC impurities. As the trihydrate crystals, the powdery charged preparation of the novel carbapenem hydrochloride crystals (25 mg/vial) obtained by the method (replacement by nitrogen) in Example 1-9 and the powdery charged preparation (25 mg/vial) not subjected to replacement in Example 1-8 were stored at 40° C. for 1 month and then measured for their color difference (ΔE), water content and content of residual carbapenem. The color difference was evaluated by a color difference meter (ZE-200, Nippondenso Co., Ltd.); the water content by a Karl-Fisher moisture meter (CA-05, Mitsubishi Kagaku Kogyo); the powdery X-ray diffraction under the method and conditions in Example 1-1 or 2-1; and the content of residual carbapenem and HPLC impurities by high performance liquid chromatography (Shimadzu Corporation). The color difference (ΔE) is a parameter indicative of a change in the color of the outward appearance of crystals, and its higher value indicates a greater coloration change than at an initial stage (just after production).

[3] = Storage of crystals in bottles without caps at various relative humidity, with or without oxygen absorbent; details: 25° C., 2 weeks; for water content (hygroscopicity): listed as trihydrate crystals, monohydrochloride trihydrate
Procedure: The novel carbapenem hydrochloride crystals were weighed in 25 mL wide-mouthed glass bottles (30 mg/bottle), and in the bottles without caps, the monohydrate was stored for 1 week at 40° C. at a relative humidity of 0%, 19.2%, 53% and 75%, and the trihydrate was stored for 2 weeks at 25° C. at a relative humidity of 11%, 33%, 51%, 75% and 93%. Then, the crystals were measured for their color difference (ΔE), water content, powdery X-ray diffraction pattern, and content of residual carbapenem. The monohydrate was also examined in the presence or absence of an oxygen absorbent (trade name: Ageless, produced by Mitsubishi Gas Chemical Co., Ltd.) during storage at each relative humidity. The oxygen absorbent makes oxygen-free conditions under which the preparation is placed.

[4] = Color difference after degasification of vial at various pressures and replacement by nitrogen; details: 80° C./1 week, n = 6
Procedure: As the monohydrate, the powdery charged preparations for injection of the novel carbapenem crystals (25 mg/vial) obtained by degasification of the air in the vial at 100, 10, 1, 0.1 and 0.01 hPa (hectopascal) respectively and subsequent replacement by nitrogen according to the method in Example 2-3 (replacement by nitrogen) were stored at 60° C. for 1 or 4 weeks (N=6) and then measured for their color difference (ΔE). The oxygen concentrations in the preparations in vials degasified at 100, 10, 1, 0.1, 0.01 hPa (hectopascal) were measured by an oxygen analyzer (RO-101, Iizima Kogyo). As the trihydrate, the powdery charged preparations of the novel carbapenem hydrochloride crystals (25 mg/vial) obtained in the method in Example 1-9 (replacement by nitrogen) were degasified in the same manner, stored at 80° C. for 1 week (N=6) and then measured for their color difference (ΔE). As the control, the powdery charged preparation of the novel carbapenem hydrochloride crystals (25 mg/vial) subjected to neither degasification nor replacement by nitrogen was used.

[5] = Storage of crystals in bottles without caps at various relative humidity, with or without oxygen absorbent; details: 25° C., 2 weeks, listed as trihydrate crystals, monohydrochloride trihydrate

C[C@@H](O)[C@H]1C(=O)N2C(C(=O)O)=C(S[C@@H]3CN[C@H]([C@H](O)[C@@H]4CCNC4)C3)[C@H](C)[C@H]12 [trihydrate, (+)-(1R,5S,6S)-6-[(R)-1-Hydroxyethyl]-1-methyl-2-[(2S,4S)-2-[(3R)-pyrrolidine-3-yl-(R)-hydroxymethyl]pyrrolidine-4-yl]thio-1-carbapen-2-em-3-carboxylic acid monohydrochloride trihydrate]
solubility ([1]; 62.5% (v/v) 1-acetoxy-2-methyl ethane in water): 2850 µg/mL | solubility ([1]; 62.5% (v/v) 1-ethoxy-2-propanol in water): 3320 µg/mL | solubility ([1]; 62.5% (v/v) 1-methoxy-2-propanol in water): 3370 µg/mL | solubility ([1]; 62.5% (v/v) 2-butoxyethanol in water): 11850 µg/mL | solubility ([1]; 62.5% (v/v) 2-ethoxyethanol in water): 4360 µg/mL | solubility ([1]; 62.5% (v/v) 2-isopropoxyethanol in water): 4360 µg/mL | solubility ([1]; 62.5% (v/v) 2-methoxyethanol in water): 6390 µg/mL | solubility ([1]; 62.5% (v/v) 3-methoxy-3-methyl-1-butanol in water): 4860 µg/mL | solubility ([1]; 62.5% (v/v) 3-methoxybutanol in water): 3240 µg/mL | solubility ([1]; 62.5% (v/v) IPA (isopropyl alcohol) in water): 4740 µg/mL | solubility ([1]; 62.5% (v/v) acetonitrile in water): 12990 µg/mL | solubility ([1]; 62.5% (v/v) diethylene glycol monoethyl ether in water): 2680 µg/mL | solubility ([1]; 62.5% (v/v) diethylene glycol monomethyl ether in water): 2410 µg/mL | solubility ([1]; 62.5% (v/v) dimethyl acetamide in water): 4530 µg/mL | solubility ([1]; 62.5% (v/v) dimethyl ether in water): 1440 µg/mL | solubility ([1]; 62.5% (v/v) dimethyl formamide in water): 7310 µg/mL | solubility ([1]; 62.5% (v/v) dimethyl sulfoxide in water): 11840 µg/mL | solubility ([1]; 62.5% (v/v) ethanol in water): 6320 µg/mL | solubility ([1]; 62.5% (v/v) methanol in water): 14380 µg/mL | solubility ([1]; 62.5% (v/v) n-propanol in water): 10460 µg/mL | solubility ([1]; 62.5% (v/v) t-butanol in water): 6060 µg/mL | solubility ([1]; 62.5% (v/v) tetrahydrofuran in water): 5290 µg/mL | solubility ([1]; 62.5% (v/v) triethylene glycol monomethyl ether in water): 2470 µg/mL | color difference (ΔE) ([2]; control (air)): 2.78 | content of residual carbapenem compound ([2]; control (air)): 101.0% | water content ([2]; control (air)): 12.0% | color difference (ΔE) ([2]; gas for replacement nitrogen): 0.00 | content of residual carbapenem compound ([2]; gas for replacement nitrogen): 100.2% | water content ([2]; gas for replacement nitrogen): 11.3% | powdery X-ray diffraction pattern (hygroscopicity) ([3]; relative humidity 11%): no change | powdery X-ray diffraction pattern (hygroscopicity) ([3]; relative humidity 33%): no change | water content (hygroscopicity) ([3]; relative humidity 33%): 11.1% | powdery X-ray diffraction pattern (hygroscopicity) ([3]; relative humidity 51%): no change | water content (hygroscopicity) ([3]; relative humidity 51%): 11.1% | powdery X-ray diffraction pattern (hygroscopicity) ([3]; relative humidity 75%): no change | powdery X-ray diffraction pattern (hygroscopicity) ([3]; relative humidity 93%): no change | color difference (ΔE) ([4]; control: neither degasification nor replacement by nitrogen): 10.06 | color difference (ΔE) ([4]; vial degasified at 1 hPa, replaced by nitrogen): 3.62 | color difference (ΔE) ([4]; vial degasified at 10 hPa, replaced by nitrogen): 3.92 | color difference (ΔE) ([4]; vial degasified at 100 hPa, replaced by nitrogen): 4.90 | water content (hygroscopicity) ([5]; relative humidity 11%): 11.0% | water content (hygroscopicity) ([5]; relative humidity 75%): 11.1% | water content (hygroscopicity) ([5]; relative humidity 93%): 11.4%
